Experimental data reported in ChEMBL document CHEMBL1201862, “PubChem BioAssay data set” (2004).
Activity calls are given as the source filed them.

Legend:
[1] = biological target: Phospholipase D1 (Homo sapiens, UniProt Q13393); assay: PLD1 inhibitor potency in cells, dose response (AID 602151); type: functional;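 note: cellular PLD1 assay in Calu-1 cells stimulated with PMA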
[2] = biological target: Phospholipase D2 (Homo sapiens, UniProt O14939); assay: PLD2 inhibitor potency in cells, dose response (AID 602147); type: functional;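 note: cellular assay in HEK293 cells overexpressing GFP-tagged PLD2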
Chain of Phospholipase D2 (O14939 whole entry): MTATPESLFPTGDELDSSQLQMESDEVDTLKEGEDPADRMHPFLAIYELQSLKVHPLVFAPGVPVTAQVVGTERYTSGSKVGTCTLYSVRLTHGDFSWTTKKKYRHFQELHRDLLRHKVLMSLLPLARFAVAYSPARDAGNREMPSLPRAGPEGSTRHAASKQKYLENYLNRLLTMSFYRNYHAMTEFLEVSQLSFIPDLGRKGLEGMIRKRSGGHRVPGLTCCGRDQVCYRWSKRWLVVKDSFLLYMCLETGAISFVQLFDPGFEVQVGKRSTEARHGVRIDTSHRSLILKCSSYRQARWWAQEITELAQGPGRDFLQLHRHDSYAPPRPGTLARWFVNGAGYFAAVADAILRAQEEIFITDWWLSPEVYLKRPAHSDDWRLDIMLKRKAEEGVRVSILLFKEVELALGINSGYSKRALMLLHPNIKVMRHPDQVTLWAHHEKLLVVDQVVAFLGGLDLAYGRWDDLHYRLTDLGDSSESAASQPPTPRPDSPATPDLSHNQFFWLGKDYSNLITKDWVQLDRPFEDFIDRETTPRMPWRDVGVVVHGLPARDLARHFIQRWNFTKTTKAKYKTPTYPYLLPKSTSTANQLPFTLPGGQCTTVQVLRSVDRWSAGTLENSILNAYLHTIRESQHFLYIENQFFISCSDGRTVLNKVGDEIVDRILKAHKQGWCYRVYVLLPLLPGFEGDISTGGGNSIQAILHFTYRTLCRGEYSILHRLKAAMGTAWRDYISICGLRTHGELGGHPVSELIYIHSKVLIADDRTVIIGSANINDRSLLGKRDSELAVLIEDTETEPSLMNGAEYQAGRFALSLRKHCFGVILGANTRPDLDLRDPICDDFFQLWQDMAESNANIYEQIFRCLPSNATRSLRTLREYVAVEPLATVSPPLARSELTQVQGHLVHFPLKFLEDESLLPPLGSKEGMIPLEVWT

[3] = biological target: Cysteine protease ATG4B (Homo sapiens, UniProt Q9Y4P1); type: functional;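 note: Fluorescence-based dose-response confirmation assay measuring inhibition of ATG4B activity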
Chain of Cysteine protease ATG4B (Q9Y4P1 whole entry): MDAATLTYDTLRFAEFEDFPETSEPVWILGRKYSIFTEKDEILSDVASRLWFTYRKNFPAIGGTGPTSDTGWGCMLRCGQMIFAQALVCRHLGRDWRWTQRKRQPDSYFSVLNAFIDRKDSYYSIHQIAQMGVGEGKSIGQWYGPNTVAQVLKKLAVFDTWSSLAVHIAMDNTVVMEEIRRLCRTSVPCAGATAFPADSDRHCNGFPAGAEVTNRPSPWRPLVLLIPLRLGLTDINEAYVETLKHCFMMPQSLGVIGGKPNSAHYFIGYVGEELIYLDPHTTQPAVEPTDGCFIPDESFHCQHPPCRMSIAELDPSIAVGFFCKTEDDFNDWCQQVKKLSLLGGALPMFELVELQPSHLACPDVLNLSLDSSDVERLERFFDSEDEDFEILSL

[4] = biological target: Phospholipase A2 (Homo sapiens, UniProt P04054); type: functional;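 note: confirmatory dose-response counterscreen on phospholipase A2, testing hits that came from an ultra-high-throughput screen for ATG4B inhibitors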
Chain of Phospholipase A2 (P04054 whole entry): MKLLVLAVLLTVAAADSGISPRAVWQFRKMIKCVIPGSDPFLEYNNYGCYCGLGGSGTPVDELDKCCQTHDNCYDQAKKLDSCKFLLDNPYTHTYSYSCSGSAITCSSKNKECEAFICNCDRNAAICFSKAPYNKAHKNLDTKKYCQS

[5] = biological target: T1, Sentrin-specific protease 8 (Homo sapiens, UniProt Q96LD8); assay: SENP8 protease inhibitors, SAR follow-up, biochemical, luminescence (AID 504501); type: functional
T1 sequence (Q96LD8 whole entry): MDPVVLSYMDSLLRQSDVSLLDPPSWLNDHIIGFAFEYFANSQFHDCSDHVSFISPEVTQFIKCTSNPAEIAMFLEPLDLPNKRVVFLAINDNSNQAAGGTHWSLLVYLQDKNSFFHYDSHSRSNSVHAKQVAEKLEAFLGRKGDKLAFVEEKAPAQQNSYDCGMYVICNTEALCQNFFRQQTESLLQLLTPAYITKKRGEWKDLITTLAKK

[6] = biological target: T2, Caspase-3 (Homo sapiens, UniProt P42574); assay: caspase-3 inhibitors as off-family protease, SAR follow-up, selectivity assay for SENP protease inhibitor project, biochemical, luminescence, set 2 (AID 588599); type: functional
T2 sequence (P42574 whole entry): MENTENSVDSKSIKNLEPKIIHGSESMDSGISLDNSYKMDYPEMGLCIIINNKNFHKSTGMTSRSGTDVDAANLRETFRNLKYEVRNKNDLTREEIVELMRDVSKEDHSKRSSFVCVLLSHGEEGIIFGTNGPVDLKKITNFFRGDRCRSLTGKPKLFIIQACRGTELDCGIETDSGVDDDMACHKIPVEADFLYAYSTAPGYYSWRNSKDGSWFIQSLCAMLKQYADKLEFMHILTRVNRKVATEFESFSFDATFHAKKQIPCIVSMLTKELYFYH

[7] = biological target: T1, Sentrin-specific protease 8; assay: SENP8 protease inhibitors, SAR follow-up, biochemical, luminescence, set 2 (AID 588601); type: functional
[8] = biological target: T2, Caspase-3; assay: SAR Analysis of small molecule inhibitors of Sentrin-specific proteases (SENPs) using a Caspase-3 Selectivity assay. [Related pubchem assays (depositor defined):AID2540, AID2599, AID434973, AID489001]; type: functional
[9] = biological target: T3, Sentrin-specific protease 7 (Homo sapiens, UniProt Q9BQF6); assay: SENP7 protease inhibitors, SAR follow-up, biochemical, luminescence, set 2 (AID 588600); type: functional
T3 sequence (Q9BQF6 whole entry): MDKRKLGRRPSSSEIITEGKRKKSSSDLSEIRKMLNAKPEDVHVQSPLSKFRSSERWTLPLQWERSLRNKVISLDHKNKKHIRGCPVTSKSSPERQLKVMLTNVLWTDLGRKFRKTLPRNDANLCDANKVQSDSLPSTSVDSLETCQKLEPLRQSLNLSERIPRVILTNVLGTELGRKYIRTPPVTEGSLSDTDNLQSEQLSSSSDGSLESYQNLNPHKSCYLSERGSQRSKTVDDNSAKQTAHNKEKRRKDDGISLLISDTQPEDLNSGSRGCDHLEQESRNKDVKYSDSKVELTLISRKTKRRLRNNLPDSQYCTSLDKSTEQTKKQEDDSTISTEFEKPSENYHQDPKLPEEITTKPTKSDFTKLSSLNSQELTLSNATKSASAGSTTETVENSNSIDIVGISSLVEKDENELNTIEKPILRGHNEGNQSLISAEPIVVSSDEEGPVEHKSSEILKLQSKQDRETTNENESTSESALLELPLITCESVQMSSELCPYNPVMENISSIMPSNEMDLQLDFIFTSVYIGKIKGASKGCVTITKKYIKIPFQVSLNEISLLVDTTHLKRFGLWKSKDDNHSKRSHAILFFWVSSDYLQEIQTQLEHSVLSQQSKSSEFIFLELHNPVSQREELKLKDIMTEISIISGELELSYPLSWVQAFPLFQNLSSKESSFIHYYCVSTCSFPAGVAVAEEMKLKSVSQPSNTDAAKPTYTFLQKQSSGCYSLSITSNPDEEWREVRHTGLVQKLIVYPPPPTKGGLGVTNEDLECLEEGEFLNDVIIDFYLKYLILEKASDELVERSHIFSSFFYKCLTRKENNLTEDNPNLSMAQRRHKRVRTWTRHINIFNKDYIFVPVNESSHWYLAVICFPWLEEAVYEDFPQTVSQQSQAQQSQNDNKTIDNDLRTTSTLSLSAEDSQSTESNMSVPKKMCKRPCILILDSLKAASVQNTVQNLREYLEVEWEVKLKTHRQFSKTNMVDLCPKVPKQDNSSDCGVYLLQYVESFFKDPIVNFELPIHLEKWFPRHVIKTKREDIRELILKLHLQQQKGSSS

[10] = biological target: T4, Sentrin-specific protease 6 (Homo sapiens, UniProt Q9GZR1); assay: SAR Analysis of small molecule inhibitors of Sentrin-specific protease 6 (SENP6) using a Luminescent assay. [Related pubchem assays (depositor defined):AID2582, AID2599]; type: functional
T4 sequence (Q9GZR1 whole entry): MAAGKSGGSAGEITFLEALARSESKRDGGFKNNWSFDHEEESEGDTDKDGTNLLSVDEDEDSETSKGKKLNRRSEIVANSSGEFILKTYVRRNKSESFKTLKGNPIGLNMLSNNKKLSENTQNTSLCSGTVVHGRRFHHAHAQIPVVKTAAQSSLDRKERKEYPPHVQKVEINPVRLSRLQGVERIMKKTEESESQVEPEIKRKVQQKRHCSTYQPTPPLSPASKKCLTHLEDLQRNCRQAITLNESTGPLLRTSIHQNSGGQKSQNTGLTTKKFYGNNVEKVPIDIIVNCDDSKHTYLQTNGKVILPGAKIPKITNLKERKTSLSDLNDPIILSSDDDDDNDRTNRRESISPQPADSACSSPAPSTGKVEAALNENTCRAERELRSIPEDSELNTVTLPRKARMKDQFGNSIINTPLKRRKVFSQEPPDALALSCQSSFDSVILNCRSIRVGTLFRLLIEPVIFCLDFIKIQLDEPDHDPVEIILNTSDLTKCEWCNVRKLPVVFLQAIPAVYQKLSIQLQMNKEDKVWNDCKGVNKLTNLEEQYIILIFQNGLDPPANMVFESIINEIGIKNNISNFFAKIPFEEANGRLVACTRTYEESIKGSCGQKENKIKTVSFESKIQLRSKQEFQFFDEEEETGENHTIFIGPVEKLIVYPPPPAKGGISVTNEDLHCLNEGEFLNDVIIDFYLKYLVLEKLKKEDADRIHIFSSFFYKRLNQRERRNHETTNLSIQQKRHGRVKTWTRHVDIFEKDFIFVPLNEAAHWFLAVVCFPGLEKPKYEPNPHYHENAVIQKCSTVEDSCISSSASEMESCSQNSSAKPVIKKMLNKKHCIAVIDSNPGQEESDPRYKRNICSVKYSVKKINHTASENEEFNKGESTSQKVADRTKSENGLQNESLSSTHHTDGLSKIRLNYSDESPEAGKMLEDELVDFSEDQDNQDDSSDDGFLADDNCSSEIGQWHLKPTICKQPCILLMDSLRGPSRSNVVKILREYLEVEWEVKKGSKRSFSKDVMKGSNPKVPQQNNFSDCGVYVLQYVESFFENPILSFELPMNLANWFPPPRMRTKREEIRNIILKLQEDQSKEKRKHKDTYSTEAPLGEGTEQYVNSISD

[11] = biological target: T4, Sentrin-specific protease 6; assay: SENP6 protease inhibitors, SAR follow-up, biochemical, luminescence, set 2 (AID 588598); type: functional
[12] = biological target: T3, Sentrin-specific protease 7; assay: SENP7 protease inhibitors, SAR follow-up, biochemical, luminescence (AID 504497); type: functional
[13] = viability loss in Mcl1-dependent HMC-1-8 cells, dose response, selectivity assay for A1 inhibitor project, cell-based, luminescence, dry powder (AID 504415); type: functional; conditions: Homo sapiens
[14] = inhibitors of cytokine-induced nitrite release, dose response, cell-based, Griess absorbance, INS-1E, dry powder, set 3 (AID 488870); type: functional; conditions: Rattus norvegicus
[15] = test system: INS1; assay: inhibitors of cytokine-induced nitrite release, dose response, cell-based, Griess absorbance, INS-1E, dry powder, set 2 (AID 488868); type: functional; conditions: Rattus norvegicus
[16] = test system: INS1; assay: INS-1E beta-cell viability without cytokines, dose response, cytotoxicity control for beta-cell cytokine protection project, CellTiter-Glo luminescence, dry powder (AID 488864); type: functional, cell-based; conditions: Rattus norvegicus
[17] = A549 cell cytotoxicity, dose response, cytotoxicity control, plate reader, cherry-pick, antagonist series (AID 743412); type: functional, cell-based
[18] = HepG2 cell cytotoxicity, dose response, cytotoxicity control, plate reader, cherry-pick, antagonist series (AID 743416); type: functional, cell-based
[19] = LGR2 antagonists, dose response, cell-based, HEK293, CRE-luciferase reporter, cherry pick, set 2 (AID 743343); type: functional;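 note: transfected cells were stimulated with diluted bursicon conditioned medium after compound addition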
[20] = MC4R antagonists, dose response, counter-screen for LGR2 antagonist project, cell-based, plate reader, cherry pick (AID 743444); type: functional;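 note: transfected HEK 293 cells stimulated with alpha-MSH peptide; potency of inhibitors of the alpha-MSH evoked signal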
[21] = HEK293 cell cytotoxicity, dose response, cytotoxicity control, plate reader, cherry-picked samples (AID 743446); type: functional, cell-based
[22] = test system: CHO; assay: cytotoxicity in TLR9-MyD88 CHO cells, dose response, cytotoxicity control for TLR9-MyD88 binding inhibitor project, cell-based, luminescence (AID 588339); type: functional, hamster; conditions: Cricetulus griseus;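 note: CHO cells stably coexpressing TLR9 and MyD88 fusions from primary screen; compound exposure lasted 48 hours before viability readout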
[23] = biological target: Beta Lactamase (Pseudomonas aeruginosa, UniProt Q932Y6); assay: beta-lactamase reporter inhibitor potency, dose response, artefact control for TLR9-MyD88 binding inhibitor project, BLA reporter cells, FRET fluorescence (AID 588341); type: cell-based;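 note: cell based assay in CHO-K1 cells stably expressing beta-lactamase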
Chain of Beta Lactamase (Q932Y6 whole entry): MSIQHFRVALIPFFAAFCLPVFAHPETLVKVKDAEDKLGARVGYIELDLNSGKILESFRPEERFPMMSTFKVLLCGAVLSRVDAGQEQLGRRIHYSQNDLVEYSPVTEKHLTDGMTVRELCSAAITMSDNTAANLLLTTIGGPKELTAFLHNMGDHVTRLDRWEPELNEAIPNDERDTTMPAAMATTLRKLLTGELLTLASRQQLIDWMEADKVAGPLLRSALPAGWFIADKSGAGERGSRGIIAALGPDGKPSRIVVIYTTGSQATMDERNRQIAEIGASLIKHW

[24] = Shn3 3'UTR reporter inhibitors, dose response, cell-based, Clone20 osteoblasts, firefly luciferase, cherry-picked (AID 624132); type: functional;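 note: firefly luciferase luminescence from reporter carrying the Shn3 3'UTR in osteoblasts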
[25] = HepG2 cell cytotoxicity, dose response, cytotoxicity control for Shn3 inhibitor project, CellTiter-Glo, cherry-picked (AID 624134); type: functional, cell-based
[26] = control 3'UTR Renilla luciferase suppression, dose response, counter-screen for Shn3 inhibitor project, cell-based, Clone20-Shn3RL, cherry-picked (AID 624133); type: functional
[27] = biological target: T5, Endoribonuclease toxin MazF (Escherichia coli K-12, UniProt P0AE70); assay: MazF endoribonuclease activators, SAR follow-up, biochemical, fluorescence, single-stranded RNA substrate (AID 588603); type: functional
T5 sequence (P0AE70 whole entry): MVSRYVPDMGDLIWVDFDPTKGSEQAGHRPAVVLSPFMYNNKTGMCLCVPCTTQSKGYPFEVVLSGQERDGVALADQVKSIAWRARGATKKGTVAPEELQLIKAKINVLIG

[28] = biological target: T5, Endoribonuclease toxin MazF; assay: MazF toxin RNase activators, dose response, biochemical, fluorescence, single-stranded RNA substrate, uHTS hits (AID 588481); type: functional
[29] = test system: MEF; assay: SAR analysis of small molecule cytotoxicity of MazEF TA System activators in embryonic fibroblast (MEF) cells. [Related pubchem assays (depositor defined):AID504720, AID504743]; type: functional; conditions: Mus musculus
[30] = biological target: T5, Endoribonuclease toxin MazF; assay: SAR analysis of small molecule activators of the MazEF TA System via a fluorescence-based single-stranded RNase assay counterscreen. [Related pubchem assays (depositor defined):AID504720, AID504743]; type: functional
[31] = biological target: T5, Endoribonuclease toxin MazF; assay: fluorescent RNA oligo signal without MazF, dose response, counter-screen for MazEF activator project, biochemical, fluorescence, single-stranded RNase substrate (AID 588502); type: functional

Chain of Phospholipase D1 (Q13393 whole entry): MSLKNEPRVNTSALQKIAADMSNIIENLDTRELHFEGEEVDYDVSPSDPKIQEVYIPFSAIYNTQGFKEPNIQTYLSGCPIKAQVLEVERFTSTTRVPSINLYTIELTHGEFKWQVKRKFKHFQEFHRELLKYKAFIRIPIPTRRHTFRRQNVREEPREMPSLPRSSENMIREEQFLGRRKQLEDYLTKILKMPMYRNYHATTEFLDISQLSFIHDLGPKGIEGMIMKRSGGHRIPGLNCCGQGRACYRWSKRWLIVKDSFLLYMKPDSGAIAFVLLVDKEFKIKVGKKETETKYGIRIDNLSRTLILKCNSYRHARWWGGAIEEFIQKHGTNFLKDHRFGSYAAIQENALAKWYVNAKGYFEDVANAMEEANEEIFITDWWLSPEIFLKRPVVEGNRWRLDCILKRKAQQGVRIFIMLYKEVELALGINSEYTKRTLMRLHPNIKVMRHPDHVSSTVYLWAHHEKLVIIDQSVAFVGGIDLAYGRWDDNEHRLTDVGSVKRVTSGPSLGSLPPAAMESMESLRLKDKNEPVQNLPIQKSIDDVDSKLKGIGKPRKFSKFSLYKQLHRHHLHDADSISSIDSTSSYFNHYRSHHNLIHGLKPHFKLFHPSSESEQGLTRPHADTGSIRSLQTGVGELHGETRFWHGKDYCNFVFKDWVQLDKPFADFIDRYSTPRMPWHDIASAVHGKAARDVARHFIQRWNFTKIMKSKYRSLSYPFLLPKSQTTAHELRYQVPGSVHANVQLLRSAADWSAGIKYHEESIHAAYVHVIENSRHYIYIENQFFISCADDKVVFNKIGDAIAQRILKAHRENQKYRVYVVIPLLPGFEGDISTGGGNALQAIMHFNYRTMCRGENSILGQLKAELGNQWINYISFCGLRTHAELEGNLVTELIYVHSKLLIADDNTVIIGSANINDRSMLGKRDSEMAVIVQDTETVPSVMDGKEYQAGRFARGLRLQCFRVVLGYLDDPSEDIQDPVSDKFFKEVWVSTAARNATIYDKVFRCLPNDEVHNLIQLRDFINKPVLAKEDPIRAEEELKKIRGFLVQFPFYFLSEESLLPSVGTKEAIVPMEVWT

SMILES: C[C@@H](CN1CCC(n2c(=O)[nH]c3ccccc32)CC1)NC(=O)c1ccc(F)c(F)c1
- IC50 [1]: 0.02 µM (active)
- IC50 [2]: 1.6 µM (active)

SMILES: O=C(c1ccc(Cl)c(S(=O)(=O)Nc2ccccc2C(=O)N2CCc3ccccc3C2)c1)N1CCc2ccccc2C1
- IC50 [3]: 15.6 µM (active)
- IC50 [4]: 10.7 µM (active)

SMILES: CC(=O)Nc1ccc(/C=C/c2noc(-c3ccccc3O)n2)cc1
- IC50 [5]: > 99 µM (inactive)
- IC50 [6]: > 99 µM (inactive)
- IC50 [7]: 1.86 µM (active)
- IC50 [8]: 35 µM (active)
- IC50 [9]: 2.31 µM (active)
- IC50 [10]: > 99 µM (inactive)
- IC50 [11]: > 99 µM (inactive)
- IC50 [12]: 7.2 µM (active)

SMILES: Cc1ccc(Sc2c([N+](=O)[O-])c(=O)oc3ccccc23)cc1
- AC50 [13]: 37.1 µM (active)

SMILES: COc1ccc(S(=O)(=O)N(C)C[C@@H]2Oc3c(NC(=O)c4nc5ccccc5s4)cccc3C(=O)N([C@@H](C)CO)C[C@H]2C)cc1
- AC50 [14]: 38.6 µM (active)
- AC50 [15]: 30.7 µM (active)
- AC50 [16]: 32.7 µM (active)
- AC50 [17]: 15 µM (active)
- AC50 [18]: 23.7 µM (active)
- AC50 [19]: 9.82 µM (active)
- AC50 [20]: 28.8 µM (active)
- AC50 [21]: > 52 µM (inactive)

SMILES: C=C1C(=O)c2sccc2C(c2ccc(OC)c(OC)c2)C1COC(C)=O (stereo unspecified)
- IC50 [22]: 1.69 µM (active)
- IC50 [23]: 21.4 µM (inactive)
- AC50 [24]: 0.662 µM (active)
- AC50 [25]: 6.99 µM (active)
- AC50 [26]: 3.62 µM (active)

SMILES: O=C(NC(=O)c1ccc(F)cc1)Nc1nc(-c2cccs2)cc(C(F)(F)F)n1
- EC50 [27]: > 99 µM (inactive)
- EC50 [28]: 20.3 µM (inactive)
- CC50 [29]: > 99 µM (inactive)
- EC50 [30]: > 99 µM (inactive)
- EC50 [31]: > 99 µM (inactive)
